Reference: patent US4939133A, “N-substituted-2-hydroxy-α-oxo-benzeneacetamides and pharmaceutical compositions having activity as modulators of the arachidonic acid cascade” (Warner-Lambert Company, priority 1985, dated 1990)
pIC50: −log10 of the molar value.

Target: Human Leukocyte Lipoxygenase
Assay: Human Leukocyte Lipoxygenase Assay (LDA-H / LDAH)
Type: biochemical
Details: for pIC50: 50% reduction of reaction rate vs control, E -number means X 10^-no.
Method: Human Leukocyte Lipoxygenase Assay (LDA-H)
Whole blood is collected from normal volunteers and spun in a refrigerated centrifuge for four minutes at 1°-6° C. at 3800 g. The buffy coat is manually separated and washed twice with chilled 0.83% NH4 Cl and centrifuged at 1000 RPM for ten minutes at 4° C. The white cell is suspended in culture media-EMEM supplemented with 6% Agamma human serum, tricine buffer, and neomycin and recentrifuged at 1000 g to yield a pellet containing the leukocytes used for the preparation of the acetone pentane powder.
The acetone-pentane powder is prepared utilizing a modification of the procedure reported for human platelet lipoxygenase. See Siegel, et al, Arachidonate Metabolism via Lipoxygenase and 12-L-hydroperoxy-5-Eicostetraenoic acid Peroxidase Sensitive to Antiinflammatory Drugs, Proc. Natl. Acad. Sci., USA 77:308, 1980 and D. P. Wallach and V. R. Brown, a novel Preparation of Human Platlet Lipoxygenase, Biochem. Biophys. Acta. 663:361, 1981. Buffy coat prepared above is resuspended in 5-7 volumes of cold 0.1M Tris buffer, pH 7.4 containing 0.154M NaCl. The suspension is centrifuged at 13,300 g for ten minutes at 4° C. The resultant pellet was retained, resuspended in five volumes of cold acetone, recentrifuged at 13,300 g and resuspended in five volumes of cold pentane. The pentane suspension is centrifuged for ten minutes at 13,300 g to give a pellet which is dried in the cold under vacuum with periodic pulverization. The dry powder is stable for several weeks when stored at -88° C.
Enzyme stock solution is prepared in the following manner. About 15 mg of the acetone-pentane powder sis suspended in 4 ml of cold tris buffer (0.1M, pH 7.4), allowed to stand for five minutes, and homogenized thorougly. The homogenate is sonicated three times for 15 seconds each time, diluted to 7 ml with cold tris buffer (0.1M, pH 7.4), and centrifuged at 4° C. for 60 minutes at 13,300 g. The supernatent is retained and diluted to a total of 10 ml with cold tris buffer (0.1M, pH 7.4) to give the stck enzyme solution. Additional dilutions of 2-50 fold are done as necessary to locate optimal enzyme reaction rate in the assay described below.
Substrate solution is prepared at 100 μM or 1.0 μM concentrations of arachidonic acid or linoleic acid in 0.1M tris buffer, pH 9.0 containing 20% ethanol.
The enzyme reaction is followed spectrophotometrically by the appearance of a conjugated diene product at 234 nm. The reaction is monitored at 24° C. using a Gilford Model 2600 spectrophotometer. […] The effects of inhibitors on the reaction are compared with control reactions run under indentical conditions. Routinely, each compounds of the present invention is incubated with the enzyme for five minutes prior to addition of substrate to initiate the reaction. Inhibition expressed as IC50 as molar concentration of the compound required to reduce reaction rate to 50% control.

Compound	pIC50	% Inhibition (LDAH) (2.50 E -5 M) [%]	other results
COc1ccc(CCc2ccc(NC(=O)c3cccc(Cl)c3O)cc2)cc1OC [Example 23]	5.39	–	–
CCCCCCCCCCc1ccc(NC(=O)c2c(O)cccc2O)cc1 [Example 25]	–	–	% Inhibition (LDAH) (8.00 E -5 M): 0.0%
COc1cc(CCc2ccc(NC(=O)c3ccc(C)cc3O)cc2)ccc1O [Example 26]	4.62	–	–
O=C(Nc1ccc(CCc2ccc(Cl)c(Cl)c2)cc1)c1ccc(Cl)cc1O [Example 36]	–	0.0	–
COc1ccc(CCc2ccc(NC(=O)c3cc4ccccc4cc3O)cc2)cc1OC [Example 38]	–	0.0	–
O=C(Nc1ccc(CCc2ccc(O)c(O)c2)cc1)c1ccccc1O [Example 47, Benzamide, N-[4-[2-(3,4-dihydroxyphenyl)ethyl]phenyl]-2-hydroxy]	–	0.0	–
COc1ccc(CCc2ccc(NC(=O)C(=O)c3cccc(C(C)(C)C)c3O)cc2)cc1OC [Example 54, N-[4-[2-(3,4-dimethoxyphenyl)ethyl]phenyl]-3-(1,1-dimethylethyl)-2-hydroxy-α-oxo-benzeneacetamide]	6.55	–	–
COc1ccc(CCc2ccc(NC(=O)C(=O)c3cccc(Cl)c3O)cc2)cc1OC [Example 60, 3-chloro-N-[4-[2-(3,4-dimethoxyphenyl)ethy]-phenyl]-2-hydroxy-α-oxo-benzenacetamide]	3.92	–	–

More lines, main results first:

pIC50	% Inhibition (LDAH) (2.50 E -5 M) [%]	Compound	other results
5.55	–	CCCCCCCCCCc1ccc(NC(=O)c2ccc(Cl)cc2O)cc1 [Example 7]	–
–	0.0	CCCCCCCCCCc1ccc(NC(=O)c2cc(Br)ccc2O)cc1 [Example 12]	–
–	0.0	CCCCCCCCCCc1ccc(NC(=O)c2ccccc2O)cc1 [Example 13]	–
6.17	–	CCCCCCCCCCc1ccc(NC(=O)c2cccc(C)c2O)cc1 [Example 22]	–
–	0.0	CCCCCCCCCCc1ccc(NC(=O)c2cc3ccccc3cc2O)cc1 [Example 49, 2-Naphthalenecarboxamide, N-(4-decylphenyl)-3-hydroxy]	–
